The test deals with ER-alpha MCF7. In words: ER-alpha MCF7 HCS EC50; stated as measured by in vitro cell proliferation assays of Examples 902 and 903. It is filed as cell-based. To be noted: Homo sapiens, MCF7, MCF7 cells; Table 2. In a few lines: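 MCF7 cells seeded 1000-2000 cells/well for 16 h, then treated with nine-point 1:2 DMSO dilution series in quadruplicate at 37 °C, 5% CO2 for 4 days. Viable cells quantified by CellTiter-Glo ATP luminescence; EC50 calculated. Controls: fulvestrant at final 100 nM, DMSO 0.2% v/v.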

In general, EC50 refers to the concentration needed to bring the measured effect to its halfway point. Take `C[C@@H]1Cc2c([nH]c3ccccc23)[C@@H](c2ccc(OC3CN(CCCF)C3)cc2)N1CC(C)(C)F` [Example 201, (1R,3R)-2-(2-fluoro-2-methyl-propyl)-1-[4-[1-(3-fluoropropyl)azetidin-3-yl]oxyphenyl]-3-methyl-1,3,4,9-tetrahydropyrido[3,4-b]indole]: the concentration for a half-maximal effect (EC50) came to 0.315 nM.

Turning to `C[C@@H]1Cc2c([nH]c3ccccc23)[C@@H](c2c(F)cc(OC3CN(CCCF)C3)cc2F)N1S(C)(=O)=O` [Example 202, (1R,3R)-1-[2,6-difluoro-4-[1-(3-fluoropropyl)azetidin-3-yl]oxy-phenyl]-3-methyl-2-methylsulfonyl-1,3,4,9-tetrahydropyrido[3,4-b]indole], the EC50 is 0.1 nM.

In the case of `C[C@@H]1Cc2c([nH]c3ccccc23)[C@@H](c2c(F)cc(OC[C@H](C)N3CC(C(F)F)C3)cc2F)N1CC(C)(C)F` [Example 204, (1R,3R)-1-[4-[(2S)-2-[3-(difluoromethyl)azetidin-1-yl]propoxy]-2,6-difluoro-phenyl]-2-(2-fluoro-2-methyl-propyl)-3-methyl-1,3,4,9-tetrahydropyrido[3,4-b]indole], the EC50 was found to be 0.371 nM.

Take `C[C@@H]1Cc2c([nH]c3ccccc23)[C@@H](c2c(F)cc(OCCN3CC(F)(CF)C3)cc2F)N1CC(C)(C)F` [Example 205, (1R,3R)-1-[2,6-difluoro-4-[2-[3-fluoro-3-(fluoromethyl)azetidin-1-yl]ethoxy]phenyl]-2-(2-fluoro-2-methyl-propyl)-3-methyl-1,3,4,9-tetrahydropyrido[3,4-b]indole]: the EC50 turned out to be 0.375 nM.

As for `C[C@@H]1Cc2c([nH]c3ccccc23)[C@@H](c2c(F)cc(OCCN3CC(CF)C3)cc2F)N1C(=O)CCC#N` [Example 206, 4-[(1R,3R)-1-[2,6-difluoro-4-[2-[3-(fluoromethyl)azetidin-1-yl]ethoxy]phenyl]-3-methyl-1,3,4,9-tetrahydropyrido[3,4-b]indol-2-yl]-4-oxo-butanenitrile], the 50% effective concentration (EC50) worked out at 31 nM.

`C[C@@H]1Cc2c([nH]c3ccccc23)[C@@H](c2c(F)cc(OCCN3CC(CF)C3)cc2F)N1CC1CCCCC1` [Example 207, (1R,3R)-2-(cyclohexylmethyl)-1-[2,6-difluoro-4-[2-[3-(fluoromethyl)azetidin-1-yl]ethoxy]phenyl]-3-methyl-1,3,4,9-tetrahydropyrido[3,4-b]indole]: the EC50 was determined as 13 nM.

As for `C[C@@H]1Cc2c([nH]c3ccccc23)[C@@H](c2c(F)cc(OC3CN(CCC4COC4)C3)cc2F)N1CC(C)(C)F` [Example 208, (1R,3R)-1-[2,6-difluoro-4-[1-[2-(oxetan-3-yl)ethyl]azetidin-3-yl]oxy-phenyl]-2-(2-fluoro-2-methyl-propyl)-3-methyl-1,3,4,9-tetrahydropyrido[3,4-b]indole], the EC50 was determined as 0.066 nM.

As for `C[C@@H]1Cc2c([nH]c3ccccc23)[C@@H](c2c(F)cc(OC3CN(CC4CCCCC4)C3)cc2F)N1CC(C)(C)F` [Example 209, (1R,3R)-1-[4-[1-(cyclohexylmethyl)azetidin-3-yl]oxy-2,6-difluoro-phenyl]-2-(2-fluoro-2-methyl-propyl)-3-methyl-1,3,4,9-tetrahydropyrido[3,4-b]indole], the EC50 stood at 8 nM.

With `C[C@@H]1Cc2c([nH]c3ccccc23)[C@@H](c2ccc(OCCN3CC(CF)C3)cc2Cl)N1CC(C)(C)F` [Example 210, (1R,3R)-1-[2-chloro-4-[2-[3-(fluoromethyl)azetidin-1-yl]ethoxy]phenyl]-2-(2-fluoro-2-methyl-propyl)-3-methyl-1,3,4,9-tetrahydropyrido[3,4-b]indole], the EC50 came out at 0.1 nM.

Consider `C[C@@H]1Cc2c([nH]c3ccccc23)[C@@H](c2ccc(OC3CN(CCCF)C3)cc2Cl)N1CC(C)(C)F` [Example 211, (1R,3R)-1-[2-chloro-4-[1-(3-fluoropropyl)azetidin-3-yl]oxy-phenyl]-2-(2-fluoro-2-methyl-propyl)-3-methyl-1,3,4,9-tetrahydropyrido[3,4-b]indole], for which the EC50 amounted to 0.2 nM.

As to `CC(O)CC(=O)N1[C@H](c2c(F)cc(OCCN3CC(CF)C3)cc2F)c2[nH]c3ccccc3c2C[C@H]1C` (stereo partly drawn) [Example 212, 1-((1R,3R)-1-(2,6-difluoro-4-(2-(3-(fluoromethyl)azetidin-1-yl)ethoxy)phenyl)-3-methyl-3,4-dihydro-1H-pyrido[3,4-b]indol-2(9H)-yl)-3-hydroxybutan-1-one], the EC50 was found to be 1 nM.

`C[C@@H]1Cc2c([nH]c3ccccc23)[C@@H](c2c(F)cc(OCCN3CC(CF)C3)cc2F)N1C(=O)C1COC1` [Example 213, [(1R,3R)-1-[2,6-difluoro-4-[2-[3-(fluoromethyl)azetidin-1-yl]ethoxy]phenyl]-3-methyl-1,3,4,9-tetrahydropyrido[3,4-b]indol-2-yl]-(oxetan-3-yl)methanone]: the EC50 stood at 4 nM.

For the compound `C[C@@H]1Cc2c([nH]c3ccccc23)[C@@H](c2c(F)cc(OCCN3CC(CF)C3)cc2F)N1C(=O)C1CSC1` [Example 214, [(1R,3R)-1-[2,6-difluoro-4-[2-[3-(fluoromethyl)azetidin-1-yl]ethoxy]phenyl]-3-methyl-1,3,4,9-tetrahydropyrido[3,4-b]indol-2-yl]-(thietan-3-yl)methanone], the EC50 worked out at 4 nM.

With `C[C@@H]1Cc2c([nH]c3ccccc23)[C@@H](c2c(F)cc(OCCN3CC(CF)C3)cc2F)N1C(=O)[C@@H](C)CF` [Example 215, (R)-1-((1R,3R)-1-(2,6-difluoro-4-(2-(3-(fluoromethyl)azetidin-1-yl)ethoxy)phenyl)-3-methyl-1,3,4,9-tetrahydro-2H-pyrido[3,4-b]indol-2-yl)-3-fluoro-2-methylpropan-1-one], the half-maximal effective concentration (EC50) is 0.335 nM.

Take `C[C@@H]1Cc2c([nH]c3ccccc23)[C@@H](c2c(F)cc(OCCN3CC(CF)C3)cc2F)N1CC1CCCC1` [Example 216, (1R,3R)-2-(cyclopentylmethyl)-1-[2,6-difluoro-4-[2-[3-(fluoromethyl)azetidin-1-yl]ethoxy]phenyl]-3-methyl-1,3,4,9-tetrahydropyrido[3,4-b]indole]: the EC50 is 1 nM.

Regarding `C[C@@H]1Cc2c([nH]c3ccccc23)[C@@H](c2c(F)cc(OC3CN(CC4CCC(F)(F)CC4)C3)cc2F)N1CC(C)(C)F` [Example 217, (1R,3R)-1-[4-[1-[(4,4-difluorocyclohexyl)methyl]azetidin-3-yl]oxy-2,6-difluoro-phenyl]-2-(2-fluoro-2-methyl-propyl)-3-methyl-1,3,4,9-tetrahydropyrido[3,4-b]indole], the EC50 stood at 2 nM.

As to `C[C@H](CF)C(=O)N1[C@H](c2c(F)cc(OCCN3CC(CF)C3)cc2F)c2[nH]c3ccccc3c2C[C@H]1C` [Example 218, (S)-1-((1R,3R)-1-(2,6-difluoro-4-(2-(3-(fluoromethyl)azetidin-1-yl)ethoxy)phenyl)-3-methyl-1,3,4,9-tetrahydro-2H-pyrido[3,4-b]indol-2-yl)-3-fluoro-2-methylpropan-1-one], the EC50 stood at 0.402 nM.

With `C[C@@H]1Cc2c([nH]c3ccccc23)[C@@H](c2c(F)cc(OCCN3CC(CF)C3)cc2F)N1C(=O)C1CCO1` (stereo partly drawn) [Example 219, ((1R,3R)-1-(2,6-difluoro-4-(2-(3-(fluoromethyl)azetidin-1-yl)ethoxy)phenyl)-3-methyl-1,3,4,9-tetrahydro-2H-pyrido[3,4-b]indol-2-yl)(oxetan-2-yl)methanone], the EC50 stood at 35 nM.

As for `C[C@@H]1Cc2c([nH]c3ccccc23)[C@@H](c2c(F)cc(OCCN3CC(CF)C3)cc2F)N1` [Example 220, (1R,3R)-1-[2,6-difluoro-4-[2-[3-(fluoromethyl)azetidin-1-yl]ethoxy]phenyl]-3-methyl-2,3,4,9-tetrahydro-1H-pyrido[3,4-b]indole], the EC50 came to 7 nM.

Turning to `C[C@@H]1Cc2c([nH]c3ccccc23)[C@@H](c2ccc(OCCN3CC(CF)C3)cc2)N1C(=O)C(C)(C)F` [Example 221, 2-fluoro-1-[(1R,3R)-1-[4-[2-[3-(fluoromethyl)azetidin-1-yl]ethoxy]phenyl]-3-methyl-1,3,4,9-tetrahydropyrido[3,4-b]indol-2-yl]-2-methyl-propan-1-one], the EC50 was 180 nM.

For `C[C@@H]1Cc2c([nH]c3ccccc23)[C@@H](c2c(F)cc(OC3CN(CCCF)C3)cc2F)N1C(=O)C(C)(C)F` [Example 222, 1-[(1R,3R)-1-[2,6-difluoro-4-[1-(3-fluoropropyl)azetidin-3-yl]oxy-phenyl]-3-methyl-1,3,4,9-tetrahydropyrido[3,4-b]indol-2-yl]-2-fluoro-2-methyl-propan-1-one], the EC50 stood at 0.4 nM.

As for `C[C@@H]1Cc2c([nH]c3ccccc23)[C@@H](c2c(F)cc(OCCN3CC(CF)C3)cc2F)N1C(=O)CN(C)C` [Example 223, 1-[(1R,3R)-1-[2,6-difluoro-4-[2-[3-(fluoromethyl)azetidin-1-yl]ethoxy]phenyl]-3-methyl-1,3,4,9-tetrahydropyrido[3,4-b]indol-2-yl]-2-(dimethylamino)ethanone], the EC50 amounted to 38 nM.

Consider `C[C@@H]1Cc2c([nH]c3ccccc23)[C@@H](c2c(F)cc(OC3CN(CC4(F)CC4)C3)cc2F)N1CC(C)(C)F` [Example 224, (1R,3R)-1-[2,6-difluoro-4-[1-[(1-fluorocyclopropyl)methyl]azetidin-3-yl]oxy-phenyl]-2-(2-fluoro-2-methyl-propyl)-3-methyl-1,3,4,9-tetrahydropyrido[3,4-b]indole], for which the 50% effective concentration (EC50) was found to be 0.316 nM.

As to `C[C@@H]1Cc2c([nH]c3ccccc23)[C@@H](c2c(F)cc(OC3CN(CCCF)C3)cc2F)N1C(=O)C1(F)CCC1` [Example 225, [(1R,3R)-1-[2,6-difluoro-4-[1-(3-fluoropropyl)azetidin-3-yl]oxy-phenyl]-3-methyl-1,3,4,9-tetrahydropyrido[3,4-b]indol-2-yl]-(1-fluorocyclobutyl)methanone], the EC50 stood at 1 nM.

As to `C[C@@H]1Cc2c([nH]c3ccccc23)[C@@H](c2c(F)cc(OC3CN(CCCF)C3)cc2F)N1C(=O)C1(C)CC1` [Example 226, [(1R,3R)-1-[2,6-difluoro-4-[1-(3-fluoropropyl)azetidin-3-yl]oxy-phenyl]-3-methyl-1,3,4,9-tetrahydropyrido[3,4-b]indol-2-yl]-(1-methylcyclopropyl)methanone], the EC50 stood at 2 nM.

The values are drawn from patent US20250114338A1, “TETRAHYDRO-PYRIDO[3,4-b]INDOLE ESTROGEN RECEPTOR MODULATORS AND USES THEREOF” (Genentech, Inc., priority 2014, published 2025).
